Source: publication PMC12304045 (2025)

How the values were obtained:
[1] = system: OTC-APT5, amine-terminated (DNA, aptamer) ACGACATTCCGTTGATCTCTCCCTTTTGGGTTGGTGTCGT; test: DPV aptasensor, [Fe(CN)6]3-/4- probe; settings: 2 mM MgCl2, 10 mM phosphate buffer pH 7.4
[2] = system: OTC-APT5 (DNA, aptamer) ACGACATTCCGTTGATCTCTCCCTTTTGGGTTGGTGTCGT; test: circular dichroism; settings: 100 mM NaCl, 5 mM KCl, 2 mM MgCl2, 2 mM CaCl2; 20 mM tris, 0.05% Tween 20, 25 °C; 2 μM aptamer
[3] = system: OTC-APT5 (DNA, aptamer) ACGACATTCCGTTGATCTCTCCCTTTTGGGTTGGTGTCGT; test: fluorescence titration; settings: 100 mM NaCl, 5 mM KCl, 2 mM MgCl2, 2 mM CaCl2; 20 mM tris, 0.05% Tween 20; 200 nM OTC titrated with aptamer; unit likely misprint for nM
[4] = system: OTC-APT5 (DNA, aptamer) ACGACATTCCGTTGATCTCTCCCTTTTGGGTTGGTGTCGT; test: fluorescence polarization titration; settings: 100 mM NaCl, 5 mM KCl, 2 mM MgCl2, 2 mM CaCl2; 20 mM tris, 0.05% Tween 20; 200 nM OTC titrated with aptamer
[5] = highest tested 250 ng/mL, signal change <10% of OTC

Q: How did the binding [1, 5] turn out when `CC1(C)S[C@@H]2[C@H](NC(=O)Cc3ccccc3)C(=O)N2[C@H]1C(=O)O` was run?
A: The binding was “no”.

Q: `CC1(C)S[C@@H]2[C@H](NC(=O)[C@H](N)c3ccccc3)C(=O)N2[C@H]1C(=O)O` was tested. Which binding ([1]; tested at fivefold excess over OTC, signal change <10% of OTC) did it give?
A: Its binding is “no”.

Q: For `CN(C)[C@@H]1C(=O)C(C(N)=O)=C(O)[C@@]2(O)C(=O)C3=C(O)c4c(O)cccc4[C@@](C)(O)[C@H]3C[C@@H]12`, which binding ([1]; 50 ng/mL, signal similar to OTC) is on record?
A: Its binding is “yes”.

Q: Which binding [2] does the source give for `CN(C)[C@@H]1C(=O)C(C(N)=O)=C(O)[C@@]2(O)C(=O)C3=C(O)c4c(O)cccc4[C@@](C)(O)[C@H]3[C@H](O)[C@@H]12` here?
A: The binding was “yes”.

Q: What about the Kd [3] of the same compound?
A: The Kd was 106 nM.

Q: And the Kd [4]?
A: Its Kd is 0.062 µM.

Q: And the binding ([1]; 50 ng/mL OTC)?
A: The binding was “yes”.

Q: How did the binding [1, 5] turn out when `CN[C@@H]1[C@H](O[C@H]2[C@H](O[C@H]3[C@H](O)[C@@H](O)[C@H](N=C(N)N)[C@@H](O)[C@@H]3N=C(N)N)O[C@@H](C)[C@]2(O)C=O)O[C@@H](CO)[C@H](O)[C@H]1O` was run?
A: The binding was “no”.

Q: `NC[C@H]1O[C@H](O[C@H]2[C@H](O)[C@@H](O[C@H]3O[C@H](CO)[C@@H](O)[C@H](N)[C@H]3O)[C@H](N)C[C@@H]2N)[C@H](O)[C@@H](O)[C@@H]1O` was tested. Which binding [1, 5] did it give?
A: The binding was “no”.
